According to the supplement of paper PMC8253809:

Assays:
DIPGX29 = H3.3 K27M diffuse intrinsic pontine glioma line; test: area under dose-response curve of % growth inhibition (log2 RLU vs DMSO / staurosporine), 1e-11 to 1e-4 M (% x log10 M); higher = more growth inhibition
Procedure, shortened: (§1)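 Patient-derived pHGG/DIPG cell lines and astrocytes, cultured on 384-well plates with a 1% Geltrex coating, were given a 10-point threefold dilution series (mean top concentration 35 μM) in triplicate for 7 days (iAstro 3 days) at 37 °C, 5% CO2. CellTiter-Glo signal, log2-transformed and normalised per plate to % activity against solvent and positive controls, was fitted with a log-logistic curve or, where the sigmoid fit failed, a smoothing spline. Area under the curve was then computed by the trapezoid rule.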

DIPGX37 [1] = H3.3 K27M diffuse intrinsic pontine glioma line; test: as above
Procedure, shortened: as §1

HGGX39 [2] = paediatric high-grade glioma line; test: as above
Procedure, shortened: as §1

HGGX6 = H3.3 G34R paediatric high-grade glioma line; test: as above
Procedure, shortened: as §1

DIPGX37 [3] = test: EC50 (inflection of fitted growth-inhibition curve) (log10 M)
Procedure, shortened: (§2)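 Viability readout was CellTiter-Glo luminescence, log2-transformed, normalised per plate to % activity between negative (solvent) and positive control wells, then pooled. This followed a 7-day exposure (3 days for iAstro) at 37 °C, 5% CO2 to a 10-point threefold dilution series (mean top concentration 35 μM), pin-tool delivered in triplicate to patient-derived pHGG/DIPG cell lines and astrocyte controls on 1% Geltrex-coated 384-well plates. Three- and four-parameter log-logistic fits were compared, and the one with the lowest AICc supplied EC50 and maximal response (yFin).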

DIPGX37 [4] = test: maximal growth inhibition (yFin) relative to DMSO / staurosporine; higher = more efficacious
Procedure, shortened: as §2

HGGX39 [5] = test: EC50 (inflection of fitted growth-inhibition curve) (log10 M)
Procedure, shortened: as §2

HGGX39 [6] = test: maximal growth inhibition (yFin) relative to DMSO / staurosporine; higher = more efficacious
Procedure, shortened: as §2

CCc1ccc(CCOc2ccc(CC3SC(=O)NC3=O)cc2)nc1 (centres undefined) [PIOGLITAZONE]
area under dose-response curve (DIPGX29): 10.8 | area under dose-response curve (DIPGX37 [1]): 35.1 | area under dose-response curve (HGGX39 [2]): 11.2 | area under dose-response curve (HGGX6): 11.5

c1cc(CN2CCCNCCNCCCNCC2)ccc1CN1CCCNCCNCCCNCC1 [PLERIXAFOR]
area under dose-response curve (DIPGX29): 16.6 | area under dose-response curve (DIPGX37 [1]): 32.1 | area under dose-response curve (HGGX39 [2]): 21 | area under dose-response curve (HGGX6): 3.55

CCN(CC)CCOC(=O)c1ccc(N)cc1 [PROCAINE]
area under dose-response curve (DIPGX29): 3.12 | area under dose-response curve (DIPGX37 [1]): 1.95 | area under dose-response curve (HGGX39 [2]): 1.44 | area under dose-response curve (HGGX6): 0

CCc1nc(N)nc(N)c1-c1ccc(Cl)cc1 [PYRIMETHAMINE]
area under dose-response curve (DIPGX29): 25 | area under dose-response curve (DIPGX37 [1]): 6.34 | area under dose-response curve (HGGX39 [2]): 26.5 | area under dose-response curve (HGGX6): 26.9

Cc1nc(=O)c2cc(CN(C)c3ccc(C(=O)N[C@@H](CCC(=O)O)C(=O)O)s3)ccc2[nH]1 [RALTITREXED]
area under dose-response curve (DIPGX29): 26.5 | area under dose-response curve (DIPGX37 [1]): 26.9 | area under dose-response curve (HGGX39 [2]): 33.4 | area under dose-response curve (HGGX6): 16

Nc1cc(F)ccc1NC(=O)/C=C/c1cnn(C/C=C/c2ccccc2)c1 [RGFP966]
EC50 (log10 M) (DIPGX37 [3]): -4.62 | maximal growth inhibition (DIPGX37 [4]): 68.6% | area under dose-response curve (DIPGX29): 17.1 | area under dose-response curve (DIPGX37 [1]): 66.1 | area under dose-response curve (HGGX39 [2]): 13.5 | area under dose-response curve (HGGX6): 12.3

CN(C)C(=O)c1cc2cnc(Nc3ccc(N4CCNCC4)cn3)nc2n1C1CCCC1 [RIBOCICLIB]
EC50 (log10 M) (HGGX39 [5]): -5.39 | maximal growth inhibition (HGGX39 [6]): 21.8% | area under dose-response curve (DIPGX29): 13.1 | area under dose-response curve (DIPGX37 [1]): 27.7 | area under dose-response curve (HGGX39 [2]): 32.5 | area under dose-response curve (HGGX6): 17.1

COc1cc(OC)c2c(=O)[nH]c(-c3cc(C)c(OCCO)c(C)c3)nc2c1 [RVX-208]
area under dose-response curve (DIPGX29): 5.91 | area under dose-response curve (DIPGX37 [1]): 2.33 | area under dose-response curve (HGGX39 [2]): 8.2 | area under dose-response curve (HGGX6): 12

O=C(NCC(=O)N1CCCC1)Nc1ccc2cnccc2c1 [SGC-707]
EC50 (log10 M) (HGGX39 [5]): -4.55 | maximal growth inhibition (HGGX39 [6]): 58.4% | area under dose-response curve (DIPGX29): 20.9 | area under dose-response curve (DIPGX37 [1]): 11.8 | area under dose-response curve (HGGX39 [2]): 31.4 | area under dose-response curve (HGGX6): 11.3

COc1ccc(CCc2nc3cc(-c4c(C)noc4C)ccc3n2C[C@H](C)N2CCOCC2)cc1Cl [SGC-CBP30]
area under dose-response curve (DIPGX29): 7.64 | area under dose-response curve (DIPGX37 [1]): 13.9 | area under dose-response curve (HGGX39 [2]): 14 | area under dose-response curve (HGGX6): 11.7

CO[C@H]1C[C@@H]2CC[C@@H](C)[C@@](O)(O2)C(=O)C(=O)N2CCCC[C@H]2C(=O)O[C@H]([C@H](C)C[C@@H]2CC[C@@H](O)[C@H](OC)C2)CC(=O)[C@H](C)/C=C(\C)[C@@H](O)[C@@H](OC)C(=O)[C@H](C)C[C@H](C)/C=C/C=C/C=C/1C [SIROLIMUS]
EC50 (log10 M) (DIPGX37 [3]): -4.68 | maximal growth inhibition (DIPGX37 [4]): 67.7% | area under dose-response curve (DIPGX29): 47.3 | area under dose-response curve (DIPGX37 [1]): 59.1 | area under dose-response curve (HGGX39 [2]): 58.5 | area under dose-response curve (HGGX6): 62.6

CC1=C(CC(=O)O)c2cc(F)ccc2/C1=C\c1ccc([S+](C)[O-])cc1 (centres undefined) [SULINDAC]
area under dose-response curve (DIPGX29): 3.44 | area under dose-response curve (DIPGX37 [1]): 16.9 | area under dose-response curve (HGGX39 [2]): 4.57 | area under dose-response curve (HGGX6): 6.88

CC1(C)CCC(C)(C)c2cc(NC(=O)c3ccc(C(=O)O)cc3)ccc21 [TAMIBAROTENE]
area under dose-response curve (DIPGX29): 19.3 | area under dose-response curve (DIPGX37 [1]): 37.3 | area under dose-response curve (HGGX39 [2]): 44.5 | area under dose-response curve (HGGX6): 28.3

CC/C(=C(\c1ccccc1)c1ccc(OCCN(C)C)cc1)c1ccccc1 [TAMOXIFEN]
EC50 (log10 M) (DIPGX37 [3]): -4.61 | maximal growth inhibition (DIPGX37 [4]): 64.9% | area under dose-response curve (DIPGX29): 8.96 | area under dose-response curve (DIPGX37 [1]): 50.8 | area under dose-response curve (HGGX39 [2]): 8.92 | area under dose-response curve (HGGX6): 12.2

COc1cccc2c1c(O)c(C(=O)N(C)c1ccc(C(F)(F)F)cc1)c(=O)n2C [TASQUINIMOD]
area under dose-response curve (DIPGX29): 0 | area under dose-response curve (DIPGX37 [1]): 4.17 | area under dose-response curve (HGGX39 [2]): 0 | area under dose-response curve (HGGX6): 0

Cn1nnc2c(C(N)=O)ncn2c1=O [TEMOZOLOMIDE]
area under dose-response curve (DIPGX29): 5.13 | area under dose-response curve (DIPGX37 [1]): 15.4 | area under dose-response curve (HGGX39 [2]): 11.3 | area under dose-response curve (HGGX6): 15.3

CS(=O)(=O)c1ccc([C@@H](O)[C@@H](CO)NC(=O)C(Cl)Cl)cc1 [THIAMPHENICOL]
EC50 (log10 M) (HGGX39 [5]): -6 | maximal growth inhibition (HGGX39 [6]): 26% | area under dose-response curve (DIPGX29): 15.4 | area under dose-response curve (DIPGX37 [1]): 29.7 | area under dose-response curve (HGGX39 [2]): 52 | area under dose-response curve (HGGX6): 19.8

COc1cc2nccc(Oc3ccc(NC(=O)Nc4cc(C)on4)c(Cl)c3)c2cc1OC [TIVOZANIB]
area under dose-response curve (DIPGX29): 14.6 | area under dose-response curve (DIPGX37 [1]): 31.3 | area under dose-response curve (HGGX39 [2]): 21.7 | area under dose-response curve (HGGX6): 42.5

O=c1[nH]c(=O)n([C@H]2C[C@H](O)[C@@H](CO)O2)cc1C(F)(F)F [TRIFLURIDINE]
area under dose-response curve (DIPGX29): 7.68 | area under dose-response curve (DIPGX37 [1]): 22.2 | area under dose-response curve (HGGX39 [2]): 21 | area under dose-response curve (HGGX6): 3.99

COc1cc(NCc2ccc3nc(N)nc(N)c3c2C)cc(OC)c1OC [TRIMETREXATE]
area under dose-response curve (DIPGX29): 51 | area under dose-response curve (DIPGX37 [1]): 11.6 | area under dose-response curve (HGGX39 [2]): 28.7 | area under dose-response curve (HGGX6): 31.9

CN1[C@@H]2CC[C@H]1C[C@@H](OC(=O)c1c[nH]c3ccccc13)C2 [TROPISETRON]
area under dose-response curve (DIPGX29): 18.7 | area under dose-response curve (DIPGX37 [1]): 33.4 | area under dose-response curve (HGGX39 [2]): 19.5 | area under dose-response curve (HGGX6): 10.2

O=C(c1cncc(Br)c1)N1CCC(N2CCCC2)CC1 [UNC669]
area under dose-response curve (DIPGX29): 0 | area under dose-response curve (DIPGX37 [1]): 20.1 | area under dose-response curve (HGGX39 [2]): 0.456 | area under dose-response curve (HGGX6): 0

O=C(c1cccc(Br)c1)N1CCC(N2CCCC2)CC1 [UNC926]
area under dose-response curve (DIPGX29): 8.49 | area under dose-response curve (DIPGX37 [1]): 0 | area under dose-response curve (HGGX39 [2]): 8.09 | area under dose-response curve (HGGX6): 8.91

O=C(c1ccc(C(=O)N2CCC(N3CCCC3)CC2)c(Nc2ccccc2)c1)N1CCC(N2CCCC2)CC1 [UNC1215]
area under dose-response curve (DIPGX29): 4.19 | area under dose-response curve (DIPGX37 [1]): 15 | area under dose-response curve (HGGX39 [2]): 5.82 | area under dose-response curve (HGGX6): 6.97

O=C(NCC(=O)N1CCCCC1)Nc1ccc2nnsc2c1 [UNC2327]
area under dose-response curve (DIPGX29): 8.94 | area under dose-response curve (DIPGX37 [1]): 3.13 | area under dose-response curve (HGGX39 [2]): 5.31 | area under dose-response curve (HGGX6): 10.6

CCCS(=O)(=O)Nc1ccc(F)c(C(=O)c2c[nH]c3ncc(-c4ccc(Cl)cc4)cc23)c1F [VEMURAFENIB]
area under dose-response curve (DIPGX29): 5.27 | area under dose-response curve (DIPGX37 [1]): 2.53 | area under dose-response curve (HGGX39 [2]): 7.32 | area under dose-response curve (HGGX6): 8.94

Cc1c(F)ccc(C(=O)Nc2cc([N+](=O)[O-])ccc2N2CCN(C)CC2)c1Cl [WDR5-C47]
area under dose-response curve (DIPGX29): 4.98 | area under dose-response curve (DIPGX37 [1]): 27.1 | area under dose-response curve (HGGX39 [2]): 5.16 | area under dose-response curve (HGGX6): 7.74

Nc1ccn([C@H]2CC[C@@H](CO)O2)c(=O)n1 [ZALCITABINE]
area under dose-response curve (DIPGX29): 13.5 | area under dose-response curve (DIPGX37 [1]): 14.2 | area under dose-response curve (HGGX39 [2]): 14.5 | area under dose-response curve (HGGX6): 2.54
